In patent US20120264159A1, “SCREENING SYSTEM FOR MODULATORS OF HER2 MEDIATED TRANSCRIPTION AND HER2 MODULATORS IDENTIFED THEREBY” (BUCK INSTITUTE FOR AGE RESEARCH, priority 2001, published 2012):

Experiments:
[1] = test system: ESX mRNA synthesis; assay: Nuclear run-off assay of ESX mRNA synthesis in SKBR3 cells; assay type: cell-based, human; conditions: 5 hours, 0.4 μM TSA
Method: (§1) The conserved and singular DNase I hypersensitivity sites found in the proximal ErbB2 and ESX promoters (12,15) were assayed as before (12). Briefly, following culture treatment of cells, nuclei isolated by mild detergent lysis in a buffer containing 10 mM Hepes pH 7.9, 1.5 mM MgCl2, 10 mM KCl, 0.4% NP-40, 10% glycerol and 1 mM DTT. […]
(§2) Nuclear run-off experiments were performed on ErbB2 overexpressing breast cancer cells to confirm the conclusion drawn from TSA induced downregulation of luciferase expression in MCF/R06pGL-9 cells that HDAC inhibitors can suppress ErbB2 promoter activity and presumably also repress ErbB2 transcription. […] Slot blot hybridization stringency was adjusted so that no signal could be detected from those control slots containing the empty plasmid.

[2] = test system: ErbB2 transcript synthesis; assay: Nuclear run-off assay of ErbB2 transcript synthesis in SKBR3 cells; assay type: cell-based, human; conditions: 5 hours, 0.4 μM TSA
Method: as §1, §2

[3] = test system: ErbB2 protein; assay: Western blot of 185 kDa ErbB2 protein levels in breast cancer cell lines; assay type: cell-based, human
Method: (§3) The conserved and singular DNase I hypersensitivity sites found in the proximal ErbB2 and ESX promoters (12,15) were assayed as before (12). Briefly, following culture treatment of cells, nuclei isolated by mild detergent lysis in a buffer containing 10 mM Hepes pH 7.9, 1.5 mM MgCl2, 10 mM KCl, 0.4% NP-40, 10% glycerol and 1 mM DTT. Partial DNase I digestions were carried out by varying DNase I treatment times (0-15 minutes at 37( ) at a fixed DNase I concentrations (0.5-1.0 units per 10^6 nuclei). After purifying and restricting the DNA, it was electrophoresed through 0.7% agarose gels and blotted onto nylon membranes, UV-crosslinked and hybridized with randomly ^32P-labelled ErbB2 and ESX promoter probes, as similarly performed for routine Southern blotting. For Northern blotting, total (treated vs. control) cell RNA (10 μg/sample lane) was isolated using TRIzol (Invitrogen) according to manufacturer's specifications, electrophoresed into 1% agarose-formaldehyde gels and transferred onto membranes that were then hybridized with ^32P-labelled ErbB2 and ESX cDNA probes. For transcriptional run-off assays cell nuclei were first isolated from treated and control cells as described for the DNase I studies. […]

[4] = test system: ErbB2 and ESX promoter hypersensitive loci; assay: DNase I hypersensitivity analysis of ErbB2 and ESX promoters; assay type: cell-based, human; conditions: SKBR3 cells, 24 hour, 0.4 μM TSA
Method: as §3

[5] = test system: carcinogen-induced mammary cancer; conditions: up to 5 mg/kg, cited from earlier work
[6] = test system: ErbB2 transcript; assay: Northern blot of ErbB2 transcript levels in ErbB2 overexpressing breast cancer cells; assay type: cell-based, human
Method: The conserved and singular DNase I hypersensitivity sites found in the proximal ErbB2 and ESX promoters (12,15) were assayed as before (12). Briefly, following culture treatment of cells, nuclei isolated by mild detergent lysis in a buffer containing 10 mM Hepes pH 7.9, 1.5 mM MgCl2, 10 mM KCl, 0.4% NP-40, 10% glycerol and 1 mM DTT. Partial DNase I digestions were carried out by varying DNase I treatment times (0-15 minutes at 37( ) at a fixed DNase I concentrations (0.5-1.0 units per 10^6 nuclei). After purifying and restricting the DNA, it was electrophoresed through 0.7% agarose gels and blotted onto nylon membranes, UV-crosslinked and hybridized with randomly ^32P-labelled ErbB2 and ESX promoter probes, as similarly performed for routine Southern blotting. For Northern blotting, total (treated vs. control) cell RNA (10 μg/sample lane) was isolated using TRIzol (Invitrogen) according to manufacturer's specifications, electrophoresed into 1% agarose-formaldehyde gels and transferred onto membranes that were then hybridized with ^32P-labelled ErbB2 and ESX cDNA probes. For transcriptional run-off assays cell nuclei were first isolated from treated and control cells as described for the DNase I studies. Elongatation of initiated nascent RNA chains was performed at 37 (C for 30 minutes using ˜5×10^6 nuclei per reaction in a buffer containing 10 mM Tris pH7.5, 2.5 mM MgCl2, 150 mM KCl, 1 mM DTT, 10% glycerol, 0.5 mM ATP, GTP and CTP, and 100 μCi of [α-^32P]UTP (800 Ci/mmol). Nuclear RNA was purified by the addition of 100 units of RNase-free DNase I (Roche) per reaction for 2 minutes followed by TRIzol processing. Radiolabelled RNA was hybridized (˜4×10^6 cpm) at 68 (C in ExpressHyb (Clontech) for 24 hours to nylon filter membranes previously slotted with 0.5 μg per slot of unlabelled ErbB2 cDNA fragments (from either the transmembrane or C-terminal domains), ESX cDNA fragments, and empty plasmid control, as we have previously described (16). Filters were washed at 64 (C in 0.2 SSC and 0.5% SDS. For Western blotting, whole-cell extracts from control vs. treated cells were boiled in sample loading buffer (1% SDS, 20% glycerol, 100 mM DTT, 50 mM Tris, pH 6.8), gel lanes loaded for constant total protein (15 μg), electrophoresed into 9% sodium dodecyl sulfacte polyacrylamide (SDS-PAGE) gels, transferred onto membranes (Immobilon-P, Millipore), and the protein-bound membranes hybridized with a primary antibody followed by a horseradish peroxidase-conjugated secondary antibody (Sigma), and specific protein bands visualized by chemiluminescent substrate (Pierce), as previously described (10).

[7] = test system: RO6 HER2 promoter; assay: Basal promoter activity of MCF-7b stable RO6 populations; assay type: cell-based, human; conditions: 10 nM, 24 hours, serum-free media, clone and polyclonal populations
Method: Parental cell lines MCF-7, and MDA-453 were transfected with the construct Ro6pGL (FIG. 2) in conjunction with pcMneo construct using lipid-based transfection (Effectene) at a ratio of 20:1 reporter:selectable marker (see, FIG. 4). Monoclonal and polyclonal populations were selected in 0.5 mg/ml G418 over 2 to 4 weeks.
Reporter activity was assayed as follows: From T-150 or T-75 culture flasks, about […] cells/well were plated into a 96 well plate format for high-throughput screening. 24 hours post plating a test agent e.g. a drug from a combinatorial library, was added to the wells at various concentrations. Certain wells were used as controls (e.g. PBS or DMSO vehicle only). Replicate wells ([…] per drug concentration) were run. 24 hours after addition of the test agent the cells were lysed, a luciferase reagent was added and activity in each well was read using a high-throughput screening plate reader (labsystems Fluoroskan). Parallel plates were run for cell viability using an MTT assay (Sigma).

In the case of CC(/C=C/C(=O)NO)=C\[C@@H](C)C(=O)c1ccc(N(C)C)cc1 [TSA, trichostatin A], the “ESX mRNA synthesis” value [1] is reported as “preserves ESX mRNA synthesis”, the “synthesis of new ErbB2 transcripts” value [2] is reported as “profoundly suppresses synthesis of new ErbB2 transcripts” and the “ectopic 185 kDa ErbB2 protein level” value ([3]; MCF/HER2-18 cells (CMV promoter), same TSA treatment conditions) is reported as “further stimulated”. For the same molecule, the “endogenous 185 kDa ErbB2 protein levels (normalized to α-tubulin)” value ([3]; SKBR3, MDA-453 and BT-474 cells, 24 hour, 0.4 μM TSA) was “marked decline”, the “DNase I hypersensitivity of ErbB2 and ESX promoter loci” value [4] was “lack of any TSA treatment effects on the hypersensitive loci” and the ill effects ([5]; adult or embryonic mice) was “no ill effects”. The antitumor activity ([5]; ip, sc, carcinogen-induced mammary cancer) was “potent antitumor activity”, the “ErbB2 transcript levels relative to control” value ([6]; 8 hour TSA treatment, Northern assays (data not shown)) was < 20 % of control and the ErbB2 transcript levels ([6]; MDA-453 and BT-474 cells, similar TSA treatment (data not shown)) was “Virtually complete elimination of ErbB2 transcript levels”. For the same molecule, the “ErbB2 mRNA level / decay” value ([6]; SKBR3 cells, 5 hours treatment, TSA 0.05 or 0.40 μM, Act D 10 μg/ml) was “greatly enhanced the rate of ErbB2 mRNA decay”, the ErbB2 transcript levels ([6]; SKBR3 cells, 24 hours, 0.4 μM TSA) was “near total disappearance of ErbB2 transcripts” and the basal promoter activity [7] was “decreased basal promoter activity”.
